Test results taken from patent publication US9006216B2, “Biocidal aldehyde composition for oil and gas extraction” (priority 2009, dated 2015).

Key:
Pseudomonas aeruginosa [1] = experiment: Chlorine dioxide and TTPC versus Pseudomonas aeruginosa, log reduction; type: cell-based; settings: ClO2 of 10 ppm alone; 10^5 ml; 30 min exposure
Description: A test with chlorine dioxide (ClO2) and TTPC versus Pseudomonas aeruginosa was performed at 10^5 ml with ClO2 of 10 ppm. This alone gave a 1 log reduction in 30 min exposure. TTPC alone at 50 ppm gave a 2 log reduction. The combination of ClO2 and TTPC of 5 ppm and 10 ppm gave a 5 log reduction in 30 min.

mycobacterial strains = settings: cited from earlier work
[2] = 20-22 degrees C; high level disinfectant; cited from earlier work
Pseudomonas aeruginosa [3] = settings: cited from earlier work
[4] = system: sulfur reducing bacteria (SRB); experiment: Efficacy in oil/gas fields on sulfur reducing bacteria; type: cell-based
Source text: (§1) As such there is actually a slight increase in planktonic microbes which are more susceptible to biocide/TTPC effects. Individual biocides affect the physiology of the cell quite differently. […] This is an example of enhanced quantum complementarity. The importance of the environmental parameter cannot be underestimated based upon the foregoing results. TTPC has a similar margin of exposure as the quats for oil field imputability with friction reducers for killing of aerobic organisms. […] The minimum inhibitory concentration (MIC) for the TTPC usage is 50-500 ppm. Therefore it is safe regarding corrosiveness, an important facet in well treatment. […] The faster cidal action is due basically to the chemistry difference between amine quats and phosphonium salts. The ammonium quats have longer alkyl chains. Instead of amine the difference is a phosphonium ion but also importantly is the alkyl chain length. It has been determined that there is an optimal length for anti-bacterial effectiveness. It was dependent upon chain length and attachment moieties. […] Usually the longer chain was better but not in these cases. […] TTPC did. There are great differences between Gram + and Gram − bacteria in their cell walls. […] The Gram − wall is complicated. It has in addition to the wall of G+ an outer membrane of lipopolysaccharides and phospholipids that protect the cell.

aerobic organisms = experiment: Killing of aerobic organisms in oil frac water (5 log reduction); type: cell-based; settings: based upon a 5 log reduction in oil frac water
Source text: as §1

biofilm = experiment: Biofilm removability; settings: secondary oil and gas recovery
Source text: as §1

[5] = system: acid-producing bacteria (APB); experiment: Effective kill time of acid-producing bacteria; type: cell-based
Description: When TTPC was added to the core Glutaraldehyde or OPA as a substitute for dual chain quaternary ammonium the effective kill time was twice as fast (2×) based upon log reduction. Similarly, the TTPC reduced the effective kill time of acid-producing bacteria (APB) by almost 50%. Although the kill speed of TTPC alone was 20% slower than the glut/quat formula of copending U.S. patent application Ser. No. 12/584,650, when TTPC is combined with glutaraldehyde as a substitute for dual chain quaternary ammonium the kill time increased to four times 4× faster, evidencing the synergism of the present combination.

[O][Cl+][O-] [ClO2, chlorine dioxide]
log reduction (Pseudomonas aeruginosa [1]): 1 log

O=Cc1ccccc1C=O [OPA, ortho-phthalaldehyde]
bactericidal activity against mycobacterial strains (mycobacterial strains): limited activity | disinfection time [2]: twelve | bactericidal activity against Pseudomonas aeruginosa (Pseudomonas aeruginosa [3]): good

CCCCCCCCCCCCCC[P+](CCCC)(CCCC)CCCC.[Cl-] [TTPC, tributyl tetradecyl phosphonium chloride]
efficacy on sulfur reducing bacteria (SRB) [4]: almost equally effective | effectiveness relative to the original glut/quat formula (aerobic organisms): twice as effective | biofilm removability compared to quaternary ammonium (biofilm): superior biofilm removability | reduction of effective kill time of acid-producing bacteria (APB) [5]: ~50%
